The values that follow come from US9309229B2, “Crystalline forms of 5-chloro-N2-(2-isopropoxy-5-methyl-4-piperidin-4-yl-phenyl)-N4-[2-(propane-2-sulfonyl)-phenyl]-pyrimidine-2, 4-diamine” (Novartis AG, priority 2010, dated 2016).

The structures appear in SMILES notation. ≈ marks a conversion by molar mass, not a printed value.

Holding throughout (type): physicochemical
Series [1] can be described thus: pH of 1% suspension in water.
Series [2] is described as follows: Solubility of crystalline form A.
Series [3] is described as follows: Hygroscopicity (moisture uptake at relative humidity).
A short description of series [4]: Stability of the form in pH 1 (0.1N HCl) solution. To be noted: pH 1 (0.1N HCl) solution over 72 hour.

In general, solubility refers to the concentration that dissolves in the medium under given conditions. For the compound `Cc1cc(Nc2ncc(Cl)c(Nc3ccccc3S(=O)(=O)C(C)C)n2)c(OC(C)C)cc1C1CCNCC1` [Form A, 5-Chloro-N2-(2-isopropoxy-5-methyl-4-piperidin-4-yl-phenyl)-N4-[2-(propane-2-sulfonyl)-phenyl]-pyrimidine-2,4-diamine], in series [1], the “pH of 1% suspension in water” value is given as 6.86. The solubility is 0.21 mg/mL (≈ 0.376 mM) in series [2] (in water); 40 mg/mL (≈ 71.7 mM) in series [2] (organic solvent or mixture, in methanol (organic solvent)); 11 mg/mL (≈ 19.7 mM) in series [2] (pH 1 solution (0.1N HCl), simulated gastric fluid, in pH 1). Also, the hygroscopicity result in series [3] (84% relative humidity (RH)) is listed as “relatively non-hygroscopic”. The moisture uptake entry in series [3] (93% RH) is “minor increase in moisture uptake”. The “conversion of form in solution” value in series [4] is “converted to a hydrochloride salt (non-stoichiometric)”.
